{"source": "patent US20210308101A1", "about": "“METHODS OF TREATING FIBROMYALGIA” (Aptinyx Inc., priority 2019, published 2021)", "test_system": "subjects with fibromyalgia", "test": "Fibromyalgia Survey Questionnaire (Widespread Pain Index, Symptom Severity Score)", "type": "in vivo, human", "from_the_text": "As used herein, “FSQ” is Fibromyalgia Survey Questionnaire, which is a patient-reported tool to assess the 2011 ACR Fibromyalgia criteria circumventing the requirement of physician assessment. The criteria review the widespread pain index, and somatic symptoms. The somatic symptoms of fatigue, waking unrefreshed, and cognitive symptoms were scored from 0 (no problem) to 3 (severe, pervasive, continuous, life disturbing problems). Symptoms of headaches, pain or cramps in the lower abdomen, and depression were given a score of 1, if they had occurred in the past 3 months.\nAs used herein, “WPI” is the Widespread Pain Index, which is a score comprised of 19 areas where subjects experienced pain within the last week with a yes or no response for each area. Each individual yes response has a numeric value of 1 and 0 is assigned to each no response. The WPI score had values ranging from 0 to 19. If any of the individual area responses were missing, the WPI score was not calculated. Here are the 19 areas that were assessed: Left Jaw, Right Jaw, Left Shoulder, Right Shoulder, Right Upper Arm, Left Upper Arm, Right Lower Arm, Left Lower Arm, Neck, Upper Back, Chest, Abdomen, Lower Back, Right Hip, Left Hip, Right Upper Leg, Left Upper Leg, Right Lower Leg, and Left Lower Leg.\nAs used herein, “SS” is the Symptom Severity Score, based on 3 questions each having a numeric score ranging from 0 to 3 and an additional 3 questions each having a numeric score of 0 or 1. If all 6 questions were given a numeric score, then the Symptom Severity Score ranged from 0 to 12. If any of the individual scores were missing, the Symptom Severity Score was not calculated.\nAs used herein, “ACR Fibromyalgia Criteria” is 2011 American College of Rheumatology Fibromyalgia Criteria, and includes FSQ, WPI, and SS. These assessments were analyzed at Day 1, Week 2, Week 4, Week 6, and Follow-up (Week 7). Both the observed Widespread Pain Index score and Symptom Severity Score, changes from baseline, and changes from treatment periods were summarized using descriptive statistics. Additionally, the treatment group comparisons were analyzed using the paired t-test and nonparametric Wilcoxon signed-rank test. A frequency distribution table was presented for yes/no responses for these categories: • Widespread Pain Index ≥7 and Symptom Severity Score >5 • Widespread Pain Index is 3 to 6 and the Symptom Severity Score is >9", "key": {"[1]": {"conditions": "Week 2 (placebo) to Week 4 (NYX-2925 20 mg), not statistically significant"}}}
{"compound": "CC(C)C(=O)N1CCC[C@]12CN([C@H](C(N)=O)[C@@H](C)O)C2=O", "note": "[NYX-2925, (2S, 3R)-3-hydroxy-2-((R)-5-isobutyryl-1-oxo-2,5-diazaspiro[3.4]octan-2-yl)butanamide]", "values": [{"measurement": "Symptom Severity score, mean change", "setting": "[1]", "result": "−0.3"}, {"measurement": "Widespread Pain Index, mean change", "setting": "[1]", "result": 0.0}, {"measurement": "Widespread Pain Index, mean change", "setting": "Week 2 (placebo) to Week 6 (NYX-2925 200 mg), not statistically significant", "result": "−1.3"}, {"measurement": "Symptom Severity score, mean change", "setting": "Week 2 (placebo) to Week 6 (NYX-2925 200 mg), statistically significant", "result": "−0.9"}]}
